Measurements: patent US20250255893A1, “ISOPROPYL-D-GLUCOPYRANOSIDE DERIVATIVE, AND PREPARATION METHOD THEREFOR AND USE THEREOF” (NATIONAL TSING HUA UNIVERSITY, priority 2021, published 2025)

Assays:
[1] = tested on: cortical neurons; experiment: In vitro cortical neuron repair (scratch injury, gap closure rate); format: cell-based, rat; settings: 72 hours
From the text: (§1) As depicted in FIG. 3, the degree of neuronal axon regeneration was quantified using the gap closure rate. White dashed lines indicate the borders of injury gap, the central black area represents the region scratched by the tip of a pipette tips. The newly regenerated neurites grow from the white dashed lines toward the center of the gap. To quantify the results, we measured the lengths of gap (Lg) and distance between regenerated neurites (Ln) every 50 m. After unbiasedly drawing ten lines of equal distance, the average distance between neurites is taken: Length of gap between regenerated neurons (Ln). Gap closure rate is calculated using the formula: (Lg−Ln)/Lg. Scale bar=100 m. Images were taken using Observer Z1 microscope.
(§2) Removed the brain of E18 rat embryos and dissected into cortex and hippocampus. Subsequently, the cortex and hippocampus were separated into cortical neurons and hippocampal neurons, respectively. Then, seeded cortical neurons on 48-well plates. The first day that neurons are cultured in vitro is defined as day in vitro 0 (DIV0). On DIV2, Cytosine beta-D-arabinoside (AraC) was added to neurons to inhibit the proliferation of glial cells. On DIV8, neurons were injured using pipette tips (p10 tips) and 9.674 nM to 96.74 μM Ampelopsisionoside was added. 0.1% DMSO served as the solvent control group, and the results in the figures were standardized against the 0.1% DMSO group. After 72 hours, immunostaining was performed. TUJ1 antibody was used to label neuronal cells to observe the regrowth of neurites. Scale bar=100 m. Images were taken using Observer Z1 microscope.
(§3) Removed the brain of E18 rat embryos and dissected into cortex and hippocampus. Subsequently, the cortex and hippocampus were separated into cortical neurons and hippocampal neurons, respectively. Then, seeded cortical neurons on 48-well plates. The first day that neurons are cultured in vitro is defined as day in vitro 0 (DIV0). On DIV2, Cytosine beta-D-arabinoside (AraC) was added to neurons to inhibit the proliferation of glial cells. […]

[2] = tested on: injured brain sections; experiment: Ex vivo 3D brain slice culture, neurite outgrowth after scalpel injury; format: cell-based; settings: 350 μm rat embryo brain sections, added every day, 96 hours, vs ddH2O
Description: (§4) The experimental procedure is depicted in FIG. 10. Took out the brain of rat embryos and embedded in low-melting agarose. The brains were sectioned using Leica microtome VT100. The tissue sections were collected with 350 μm thick and injured using a scalpel. ddH2O or Ampelopsisionside was added to injured brain sections every day. After 96 hours, immunostaining was performed. TUJ1 antibody was used to label neuron cells. GFAP antibody was used to label glial cells. DAPI was used to label nucleus. Scale bar=100 m. Images were taken using Zeiss LSM800 confocal microscope.
as §4, with “Byzantionoside B” for “Ampelopsisionside”
as §4, with “Roseoside” for “Ampelopsisionside”, “μm.” for “m.”

[3] = tested on: hippocampal neurons; experiment: In vitro hippocampal neuron repair (scratch injury, gap closure rate); format: cell-based, rat; settings: 72 hours
Description: as §2, with “The experimental procedure is depicted in FIG. 2. Removed” for “Removed”, “seeded hippocampal” for “seeded cortical”, “to 967.4” for “to 96.74”, “neurites.” for “neurites. Scale bar=100 m.”
as §1
as §3, with “seeded hippocampal” for “seeded cortical”

[4] = tested on: retinal explants; experiment: Ex vivo retinal explant neuronal repair; format: cell-based, C57BL/6 mice; settings: five days, vs ddH2O
Description: Retinal explants were obtained from C57BL/6 mice at postnatal day 8. Following the sacrifice of mice, the eyes were enucleated, and the eyeballs were dissected using forceps and microscissors to separate the retina and remove the vitreous. Subsequently, the dissected retinas were quartered and trimmed along the edges of the tissue using microscissors. Each quarter was cultured on an 18 mm round coverslip and placed in a 12-well plate inside a CO2 incubator at 35° C. for five days. The culture medium was replaced daily with fresh medium containing either 13.5 µM or 135 µM Byzantionoside B. On the fifth day of culture, the retinal tissues were fixed with a mixture of 0.1% glutaraldehyde solution and 4% paraformaldehyde at room temperature for one hour. Immunostaining was performed using primary antibodies against the axonal marker beta-III-tubulin (TUJ1) and DAPI to label neurons and cell nuclei, respectively. Images were acquired using a super-resolution upright confocal microscope (LSM-800, Carl Zeiss). […] The ratio of neuronal fiber area to tissue boundary perimeter was then calculated to determine the unit perimeter neuronal fiber length.
Retinal explants were obtained from C57BL/6 mice at postnatal day 8. […] The ratio of neuronal fiber area to tissue boundary perimeter was then calculated to determine the unit perimeter neuronal fiber length.

SMILES	dendritic outgrowth (gap closure rate) ([1]; 1.29 M to 25.88 M, vs ddH2O)	neurite outgrowth from injury site [2]	neurite regrowth after injury (gap closure rate) ([3]; 0.013 M to 1294 μM, vs ddH2O)	recovery of injured retinal neurons (unit perimeter neuronal fiber length) ([4]; 13 μM or 130 μM)	dendritic outgrowth (gap closure rate) ([1]; 9.674 nM to 96.74 μM, vs 0.1% DMSO)	neurite regrowth after injury (gap closure rate) ([3]; 9.674 nM to 967.4 μM, vs 0.1% DMSO)	neurite outgrowth (gap closure rate) ([1]; 1.34 M to 26.84 M, vs ddH2O)	neurite regrowth after injury (gap closure rate) ([3]; 0.13 M to 1342 μM, vs ddH2O)	recovery of injured retinal neurons (unit perimeter neuronal fiber length) ([4]; 13.5 M or […])
CC1=CC(=O)CC(C)(C)[C@@]1(O)/C=C/[C@@H](C)O[C@@H]1O[C@H](CO)[C@@H](O)[C@H](O)[C@H]1O [Roseoside]	effectively promotes dendritic outgrowth	promotes neurite outgrowth	promotes neurite regrowth after injury	significant recovery of injured retinal neurons	–	–	–	–	–
C[C@H](/C=C/[C@@]1(O)[C@H](C)CC(=O)CC1(C)C)O[C@@H]1O[C@H](CO)[C@@H](O)[C@H](O)[C@H]1O [Ampelopsisionoside]	–	promotes neurite outgrowth	–	–	effectively promotes dendritic outgrowth	promotes neurite regrowth after injury	–	–	–
CC1=CC(=O)CC(C)(C)[C@H]1CC[C@@H](C)O[C@@H]1O[C@H](CO)[C@@H](O)[C@H](O)[C@H]1O [Byzantionoside B]	–	promotes neurite outgrowth	–	–	–	–	effectively promotes neurite outgrowth	promotes neurite regrowth after injury	significant recovery of injured retinal neurons
